Measured values as given in publication PMC7557582, “Broad-Spectrum Antimicrobial Activity and Improved Stability of a D-Amino Acid Enantiomer of DMPC-10A, the Designed Derivative of Dermaseptin Truncates” (Antibiotics, 2020).

Columns and labels:
E. faecalis (NCTC 12697) = type: cell-based, Enterococcus faecalis; settings: E. faecalis (NCTC 12697); broth-dilution, MHB pH 7.4, 37 °C; positive control
Description: (§1) Gram-positive bacteria Staphylococcus aureus (NCTC 10788) and Enterococcus faecalis (NCTC 12697) and Gram-negative bacteria Escherichia coli (NCTC 10418), Pseudomonas aeruginosa (ATCC 27853), and Klebsiella pneumoniae (ATCC 43816) were tested. […] All the bacterial strains were inoculated in Mueller Hinton broth (MHB), pH 7.4 (Oxiod, Basingstoke, UK) at 37 °C. Then, the log-phase bacteria were mixed with the peptide at the concentrations from 512 to 1 µM in two-fold dilution, in a 96 well-plate. The wells contained sterilized MHB and bacteria cultures were employed as a blank and growth control, respectively.

E. coli (NCTC 10418) = type: cell-based, Escherichia coli; settings: E. coli (NCTC 10418); broth-dilution, MHB pH 7.4, 37 °C; positive control
Description: as §1

[1] = test system: K. pneumoniae (ATCC BAA 1705); type: cell-based, Klebsiella pneumoniae; settings: K. pneumoniae (ATCC BAA 1705); broth-dilution, MHB pH 7.4, 37 °C; positive control
Description: as §1

S. aureus (NCTC 10788) = type: cell-based, Staphylococcus aureus; settings: S. aureus (NCTC 10788); broth-dilution, MHB pH 7.4, 37 °C; positive control
Description: as §1

[2] = test system: P. aeruginosa (ATCC 27853); type: cell-based, Pseudomonas aeruginosa; settings: P. aeruginosa (ATCC 27853); broth-dilution, MHB pH 7.4, 37 °C; positive control
Description: as §1

[3] = test system: K. pneumoniae (ATCC BAA 2342); type: cell-based, Klebsiella pneumoniae; settings: K. pneumoniae (ATCC BAA 2342); broth-dilution, MHB pH 7.4, 37 °C; positive control
Description: as §1

[4] = test system: K. pneumoniae (ATCC 43816); type: cell-based, Klebsiella pneumoniae; settings: K. pneumoniae (ATCC 43816); broth-dilution, MHB pH 7.4, 37 °C; positive control
Description: as §1

MRSA (NCTC 12493) = type: cell-based, methicillin-resistant S. aureus; settings: MRSA (NCTC 12493); broth-dilution, MHB pH 7.4, 37 °C; positive control
Description: as §1

SMILES	MIC of antibiotic (E. faecalis (NCTC 12697))	MIC of antibiotic (E. coli (NCTC 10418))	MIC of antibiotic [1]	MIC of antibiotic (S. aureus (NCTC 10788))	MIC of antibiotic [2]	MIC of antibiotic [3]	MIC of antibiotic [4]	MIC of antibiotic (MRSA (NCTC 12493))
CCn1cc(C(=O)O)c(=O)c2cc(F)c(N3CCNCC3)cc21 [Norfloxacin, reference compound]	4/12.53 µg/mL	1/3.13 µg/mL	>32/>100.21 µg/mL	2/6.26 µg/mL	2/6.26 µg/mL	>32/>100.21 µg/mL	2/6.26 µg/mL	2/6.26 µg/mL
CN[C@H](CC(C)C)C(=O)N[C@H]1C(=O)N[C@@H](CC(N)=O)C(=O)N[C@H]2C(=O)N[C@H]3C(=O)N[C@H](C(=O)N[C@H](C(=O)O)c4cc(O)cc(O)c4-c4cc3ccc4O)[C@H](O)c3ccc(c(Cl)c3)Oc3cc2cc(c3O[C@@H]2O[C@H](CO)[C@@H](O)[C@H](O)[C@H]2O[C@H]2C[C@](C)(N)[C@H](O)[C@H](C)O2)Oc2ccc(cc2Cl)[C@H]1O [Vancomycin, reference compound]	1/0.69 µg/mL			0.125/0.08 µg/mL				0.125/0.08 µg/mL
